{"source": "patent US8017575B2", "about": "(priority 2004, dated 2011)", "key": {"beta receptors": {"tested_on": "beta receptors", "experiment": "Heart rate test of beta blockade (propranolol vs isoproterenol)", "assay_type": "in vivo, rat", "experimental": "Identification of Blocking Dose of […]: A standard surgical preparation, laparotomy and portal vein puncture were performed on an anesthetized rat. […] (Heart rate was measured using a Grass AC/DC Strain gauge amplifier and National Instrument data acquisition software.) Following stabilization, isoproterenol (0.5 μg/kg/min-IV) was administered at a rate of 0.1 ml/min for 5 minutes. Heart rate and glucose levels were analyzed in the last 30 seconds of isoproterenol administration and 15 minutes subsequent to discontinuation of isoproterenol infusion."}, "[1]": {"experiment": "Arterial blood glucose (glycemia) during drug infusion and hemorrhage", "assay_type": "in vivo, rat", "experimental": "(§1) After surgical completion, the animal was allowed to stabilize for 30 minutes, after which arterial blood samples (25 μl) were taken from the shunt and analyzed for blood glucose concentration using a glucose oxidase analyzer (Yellow Springs Instruments, Yellow Springs, Ohio). Samples were analyzed at five-minute intervals until 3 successive stable measurements were obtained. The mean of these 3 samples was used as the basal glucose level. […] At 45 seconds, a glucose infusion was initiated and adjusted to maintain euglycemia as determined by the basal glucose level. An arterial sample was taken from the arterial-venous shunt every 2 minutes during the RIST, and the glucose infusion was increased or decreased accordingly. […] The amount of glucose infused over the RIST (mg glucose/kg of body weight) is known as the RIST index.\n(§2) Following the standard surgical procedure described above, a control RIST was performed. The anesthetized animal was hemorrhaged to an arterial blood pressure of 50 mmHg and held at this pressure for a 10 minute interval, by withdrawing additional blood as needed. Blood was not returned. The animal was hemorrhaged from the arterial side of the shunt, using a 23-gauge needle attached to a syringe, at a rate of 0.5 ml/min. Arterial blood pressure was measured from the vascular shunt during brief occlusion of the venous side of the shunt. Following the hemorrhage, arterial blood glucose levels were measured until they became stable for at least 15 minutes and another RIST was performed.\nEffect of Phentolamine on HDIR following Hemorrhage: Following a standard surgical preparation, a laparotomy and portal puncture was performed. After a 30 minute stabilization period, a control RIST was performed. Following the RIST, phentolamine (400 μg/kg/min-IPV, 10 minute infusion at a rate of 0.025 ml/min), or cyclosomatostatin (20 μg/kg/min-IPV, continuous infusion at a rate of 0.025 ml/min) was administered. The rat was restabilized and then hemorrhaged to an arterial blood pressure of 50 mmHg and held at this pressure for a ten-minute interval. […]"}, "insulin sensitivity [2]": {"tested_on": "insulin sensitivity", "experiment": "Rapid Insulin Sensitivity Test (RIST) before/after hemorrhage to 50 mmHg (hemorrhage-induced HDIR)", "assay_type": "in vivo, rat", "experimental": "(§3) Surgical Procedures: Male Sprague Dawley rats (Charles River, St. Constant, Quebec, Canada) were housed in climate-controlled conditions for at least 6 days prior to surgical preparation. The animals were fasted for 8 hours, and then allowed ad lib access to standard rat chow for 2 hours prior to surgical preparation. […] The animals were weighed and anesthetized by an intraperitoneal injection of pentobarbital sodium (65 mg/ml, Somnotol, Biomeda-MTC Animal Health Inc., Cambridge Canada). Temperature was monitored by a rectal thermometer and kept constant at 37.5±0.5° C. by a heated surgical table and an overhead lamp. […] Animals were heparinized (100 IU/kg). Blood samples were taken by puncturing the arterial side of the arterial-venous shunt. The infusion of pharmacological agents was done by puncturing and inserting an infusion line into the silicon sleeve of the venous side of the shunt. Arterial pressure was measured by clamping the silicon sleeve on the venous side of the shunt, and measuring pressure from a side branch. A tracheotomy was performed (Micro-Renathane Tubing (095), Braintree Scientific Inc.) The left jugular vein was then cannulated with PE60 tubing in order to allow for continuous supplemental anesthetic (sodium pentobarbital, 2.16 mg/ml saline) infusion at a rate of 0.5 ml/hr/100 g of body weight. An infusion line was inserted into a silicon sleeve on the jugular supplement line for glucose administration and was controlled by a variable infusion pump (Genie, Kent Scientific Corporation, Litchfield, Mass.). The cannulation of the femoral artery and vein, the tracheotomy and the jugular vein cannulation is the standard surgical preparation.\nas §1, §2\nA control RIST was performed after a 30 minute stabilization period. […] A post hemorrhage RIST was then done as soon as a stable glycemic baseline had been established.\nEffect of Phentolamine on HDIR following Hemorrhage: Following a standard surgical preparation, a laparotomy and portal puncture was performed. After a 30 minute stabilization period, a control RIST was performed. Following the RIST, phentolamine (400 μg/kg/min-IPV, 10 minute infusion at a rate of 0.025 ml/min), or cyclosomatostatin (20 μg/kg/min-IPV, continuous infusion at a rate of 0.025 ml/min) was administered. The rat was restabilized and then hemorrhaged to an arterial blood pressure of 50 mmHg and held at this pressure for a ten-minute interval."}, "insulin sensitivity [3]": {"tested_on": "insulin sensitivity", "experiment": "RIST during somatostatin infusion (somatostatin-induced HDIR)", "assay_type": "in vivo, rat", "experimental": "as §3, with “The cannulation of the femoral artery and vein, the tracheotomy and the jugular vein cannulation is the standard surgical preparation.” left out\nAfter surgical completion, the animal was allowed to stabilize for 30 minutes, after which arterial blood samples (25 μl) were taken from the shunt and analyzed for blood glucose concentration using a glucose oxidase analyzer (Yellow Springs Instruments, Yellow Springs, Ohio). Samples were analyzed at five-minute intervals until 3 successive stable measurements were obtained. […] At 45 seconds, a glucose infusion was initiated and adjusted to maintain euglycemia as determined by the basal glucose level. […]"}, "[4]": {"conditions": "for Volume of Distribution, Percent Change (reduction): SMA ligation vs control", "experimental": "Following the hemorrhage, another RIST was performed. […] The samples were centrifuged and the plasma was frozen immediately on dry ice, and stored at −80° C.\nA snare was inserted around the artery so that it could be occluded. The animal was allowed to rest for a 30 minute interval."}, "[5]": {"conditions": "SMA ligation series, SMA ligated"}, "[6]": {"conditions": "hemorrhage series, control, insulin 50 mU/kg 30 second bolus"}}, "note": "Values joined by “and” are separate entries in the source; they are usually repeats but may differ in a detail not shown here. Identical values can stand only once. Like-named read-outs stand apart in the source and are kept apart here."}
{"molecule": "CC(C)NCC(O)c1ccc(O)c(O)c1", "note": "(stereo not shown) [isoproterenol]", "values": [{"measurement": "heart rate (remained at original baseline level)", "setting": "beta receptors; isoproterenol 0.5 μg/kg/min-IV subsequent to propranolol 1.5 mg/kg-IPV", "value": "415.3±5.9", "unit": "beats/min"}, {"measurement": "increase in basal heart rate", "setting": "beta receptors; isoproterenol alone", "value": "125.2±9.8", "unit": "beats/min"}]}
{"molecule": "Cc1ccc(N(CC2=NCCN2)c2cccc(O)c2)cc1", "note": "[phentolamine]", "values": [{"measurement": "increase in glycemia during hemorrhage", "setting": "[1]; phentolamine 400 μg/kg/min-IPV prior to hemorrhage (18.2±4.2% without agents)", "value": "1.1±0.9% and 1.1%"}, {"measurement": "prevention of HDIR subsequent to hemorrhage", "setting": "insulin sensitivity [2]; Example 7: phentolamine 400 μg/kg/min-IPV", "value": "unable to prevent HDIR"}, {"measurement": "post hemorrhage RIST index", "setting": "insulin sensitivity [2]; Example 7: phentolamine 400 μg/kg/min-IPV prior to hemorrhage, control 213.1±8.4, n=7", "value": "145.4±9.2 mg of glucose/kg"}, {"measurement": "decrease in insulin sensitivity (RIST index) between control and post hemorrhage RIST", "setting": "insulin sensitivity [2]; Example 7: phentolamine 400 μg/kg/min-IPV prior to hemorrhage, n=7", "value": 31.8, "unit": "%"}, {"measurement": "decrease in insulin sensitivity (RIST index) between control and post hemorrhage RIST", "setting": "insulin sensitivity [2]; Example 7: phentolamine 400 μg/kg/min-IPV prior to hemorrhage, n=7, listed as Phentolamine", "value": "31.8% and 31.8±5.5%"}]}
{"molecule": "CC(C)NCC(O)COc1cccc2ccccc12", "note": "(stereo not shown) [propranolol]", "values": [{"measurement": "increase in glycemia following hemorrhage", "setting": "[1]; propranolol 1.5 mg/kg-IPV prior to hemorrhage", "value": "17.4±3.3% and 17.4%"}, {"measurement": "prevention of HDIR subsequent to hemorrhage", "setting": "insulin sensitivity [2]; Example 8: propranolol 1.5 mg/kg-IPV", "value": "unable to prevent HDIR"}, {"measurement": "block of the acceleration in heart rate caused by isoproterenol", "setting": "beta receptors; propranolol 1.5 mg/kg", "value": "completely block"}, {"measurement": "reduction in basal heart rate", "setting": "beta receptors; propranolol 1.5 mg/kg-IPV", "value": "70.6±1.3", "unit": "beats/min"}]}
{"molecule": "cyclosomatostatin", "values": [{"measurement": "increase in glycemia following hemorrhage", "setting": "[1]; cyclosomatostatin 20 μg/kg/min-IPV, infused 67.2±4.8 minutes", "value": "19.9±2.0", "unit": "%"}, {"measurement": "post hemorrhage RIST index", "setting": "insulin sensitivity [2]; Example 9: cyclosomatostatin 20 μg/kg/min-IPV continuous, started prior to hemorrhage, initial RIST 214.3±8.8, n=5", "value": "217.5±8.5 mg of glucose/kg"}, {"measurement": "prevention of HDIR following hemorrhage", "setting": "insulin sensitivity [2]; Example 9: cyclosomatostatin 20 μg/kg/min-IPV prior to hemorrhage, n=5", "value": "prevented the occurrence of HDIR"}, {"measurement": "prevention of somatostatin-induced HDIR", "setting": "insulin sensitivity [3]; Example 6: cyclosomatostatin 20 μg/kg/min-IPV continuous infusion, n=3", "value": "significantly prevented the occurrence of HDIR"}, {"measurement": "cyclosomatostatin and somatostatin RIST index", "setting": "insulin sensitivity [3]; Example 6: cyclosomatostatin 20 μg/kg/min-IPV with somatostatin 0.16 μg/kg/min, control 215.9±7.4, n=3", "value": "213.1±8.6 mg of glucose/kg"}, {"measurement": "blockade of somatostatin induced HDIR", "setting": "insulin sensitivity [3]; pilot studies, cyclosomatostatin 10 μg/kg/min", "value": "did not produce a full blockade"}]}
{"molecule": "insulin: Human insulin (Humulin R) purchased from Eli Lilly", "values": [{"measurement": "Clearance", "setting": "[4]; [5]", "value": "0.667 ± 0.0167", "unit": "mL/min/kg"}, {"measurement": "Volume of Distribution", "setting": "[4]; [5]", "value": "0.03 ± 0.003", "unit": "L/kg"}, {"measurement": "Volume of Distribution, Percent Change (reduction)", "setting": "[4]", "value": "69.4±2.2", "unit": "%"}, {"measurement": "Volume of Distribution, Percent Change (reduction)", "setting": "[4]; listed as Insulin", "value": 69.39, "unit": "%"}, {"measurement": "insulin concentration at the 1 minute mark of the RIST", "setting": "[4]; after hemorrhage, n=4", "value": "27.5 ± 3.8", "unit": "µg/L"}, {"measurement": "time for insulin to decrease to baseline", "setting": "[4]; both control and hemorrhage RISTs, 30 second bolus 50 mU/kg", "value": 5, "unit": "min"}, {"measurement": "Clearance", "setting": "[4]; [6]", "value": "1.03 ± 0.15", "unit": "mL/min/kg"}, {"measurement": "Volume of Distribution", "setting": "[4]; [6]", "value": "0.056 ± 0.012", "unit": "L/kg"}]}
